Laboratory results from patent US12491226B2, “Mastic-derived natural protectants” (BARENTZ NORTH AMERICA, LLC, priority 2018, dated 2025).

Tests used:
[1] = system: mixture of fungi (C. albicans (ATCC #10231) and A. brasiliensis (ATCC #16404)); test: CTFA Preservative Challenge Test on shampoo, mixed fungi; format: cell-based; settings: for Mixed Fungi Day 7 Count: shampoo containing sample, initial count 7.9×10^5 cfu/mL, surviving organisms on day 7; for Mixed Fungi Day 7 kill reduction: shampoo, versus initial count 7.9×10^5 cfu/mL
Method: (§1) The CTFA Preservative Challenge Test was performed on a shampoo containing the samples below against a mixture of fungi (C. albicans (ATCC #10231) and A. brasiliensis (ATCC #16404)) having an initial count of 7.9×10^5 cfu/mL or a mixture of bacteria having an initial count of 4×10^6 cfu/mL. The shampoos inoculated with bacteria were allowed to stand for 14 days and the shampoos inoculated with fungi were allowed to stand for 7 days. The samples were evaluated for surviving organisms on day 7 for fungi-innoculated shampoos and days 7 and 14 for bacteria-innoculated shampoos.

mixture of bacteria = test: CTFA Preservative Challenge Test on shampoo, mixed bacteria (with Kull synergism calculation); format: cell-based; settings: for Mixed Bacteria Day 7 Count / Mixed Bacteria Day 14 Count: shampoo containing sample, initial count 4×10^6 cfu/mL; for Mixed Bacteria Day 7 Count: surviving organisms on day 7; for Mixed Bacteria Day 7 kill reduction / Mixed Bacteria Day 14 kill reduction: shampoo, versus initial count 4×10^6 cfu/mL; for Mixed Bacteria Day 14 Count: surviving organisms on day 14
Method: as §1
From the table, synergism for the combinations above against mixed bacteria in shampoo was calculated by the method described in C. E. Kull et al., “Mixtures of Quaternary Ammonium Compounds and Long-chain Fatty Acids as Antifungal Agents”, Applied Microbiology, 9:538-541 (1961). The synergism value (QA/Qa+QB/Qb) was determined. […] Qa is the concentration of the first component alone (in percent by weight) required to yield 100% retardation of the bacteria. Qb is the concentration of the second component alone (in percent by weight) required to yield 100% retardation of the bacteria. When the value of (QA/Qa+QB/Qb) is less than one, the mixture is synergistic. Values for (QA/Qa+QB/Qb) of 1 and greater represent an additive effect and an antagonistic effect, respectively. Here, (QA/Qa+QB/Qb) is (([…])+([…]) or <0.75. Accordingly, the mixture of 0.2% mastic oil and 0.05% piroctine olamine is synergistic. The mixture of 2% mastic water and 2% ELA, the mixture of 2% mastic water and 0.5% sodium p-anisate, and the mixture of 4% mastic water and 1% quinic acid are also synergistic.

| SMILES | Mixed Fungi Day 7 Count [1] | Mixed Fungi Day 7 kill reduction [1] | Mixed Bacteria Day 7 Count (mixture of bacteria) | Mixed Bacteria Day 7 kill reduction (mixture of bacteria) | Mixed Bacteria Day 14 Count (mixture of bacteria) | Mixed Bacteria Day 14 kill reduction (mixture of bacteria) |
| --- | --- | --- | --- | --- | --- | --- |
| O=C(O)[C@]1(O)C[C@@H](O)[C@@H](O)[C@H](O)C1 [2.5% Quinic acid, quinic acid] | 1.4 × 10^5 cfu/mL | (<90% kill | – | – | – | – |
| COc1ccc(C(=O)[O-])cc1.[Na+] [1% Sodium p-anisate, sodium p-anisate] | – | – | 2.3 × 10^4 cfu/mL | (<99% kill | – | – |
| CCCCCCCCCCCC(=O)N[C@@H](CCCN=C(N)N)C(=O)OCC.Cl [5% ELA HCl, ethyl lauroyl arginate HCl] | – | – | – | – | 1.3 × 10^2 cfu/mL | (<99.9% kill |
| Cc1cc(CC(C)CC(C)(C)C)n(O)c(=O)c1.NCCO (stereo not drawn) [0.1% Piroctine olamine, Piroctine olamine] | 5.9 × 10^4 cfu/mL | (<90% kill | 1.2 × 10^5 cfu/mL | (<97% kill | 1.3 × 10^5 cfu/mL | (<97% kill |
